Measurements published in the kinase profiling compilation of Christmann-Franck et al. (2016).

How the values were obtained:
Test in all cases: radiometric filter-binding kinase assay, Kinase HotSpot
Conditions in all cases: compound 0.5 µM; ATP 10 µM
HIPK3 (human) = HIPK3 (human) (UniProt Q9H422)
TAOK1 (human) = TAOK1 (human) (UniProt Q7L7X3)
DAPK2 (human) = DAPK2 (human) (UniProt Q9UIK4)
SIK2 (human) = SIK2 (human) (UniProt Q9H0K1)
PRKCZ (human) = PRKCZ (human) (UniProt Q05513)
SLK (human) = SLK (human) (UniProt Q9H2G2)
AURKB (human) = AURKB (human) (UniProt Q96GD4)
MAP3K2 (human) = MAP3K2 (human) (UniProt Q9Y2U5)
RIPK2 (human) = RIPK2 (human) (UniProt O43353)
STK16 (human) = STK16 (human) (UniProt O75716)
CLK3 (human) = CLK3 (human) (UniProt P49761)
SRMS (human) = SRMS (human) (UniProt Q9H3Y6)
MAP3K7 TAB1 (human) = MAP3K7 TAB1 (human) (UniProt O43318+Q15750)
NEK11 (human) = NEK11 (human) (UniProt Q8NG66)
VRK1 (human) = VRK1 (human) (UniProt Q99986)
CSNK1G2 (human) = CSNK1G2 (human) (UniProt P78368)
SYK (human) = SYK (human) (UniProt P43405)
NUAK1 (human) = NUAK1 (human) (UniProt O60285)
TBK1 (human) = TBK1 (human) (UniProt Q9UHD2)
SGK2 (human) = SGK2 (human) (UniProt Q9HBY8)
EPHB4 (human) = EPHB4 (human) (UniProt P54760)
CAMK2G (human) = CAMK2G (human) (UniProt Q13555)
CHEK2 (human) = CHEK2 (human) (UniProt O96017)
MELK (human) = MELK (human) (UniProt Q14680)
FRK (human) = FRK (human) (UniProt P42685)
IKBKB (human) = IKBKB (human) (UniProt O14920)
AXL (human) = AXL (human) (UniProt P30530)
MAPKAPK3 (human) = MAPKAPK3 (human) (UniProt Q16644)
PAK3 (human) = PAK3 (human) (UniProt O75914)
MAP3K5 (human) = MAP3K5 (human) (UniProt Q99683)
PNCK (human) = PNCK (human) (UniProt Q6P2M8)
MAP4K2 (human) = MAP4K2 (human) (UniProt Q12851)
MAPK10 (human) = MAPK10 (human) (UniProt P53779)
TSSK1B (human) = TSSK1B (human) (UniProt Q9BXA7)
FLT3 (human) = FLT3 (human) (UniProt P36888)
IGF1R (human) = IGF1R (human) (UniProt P08069)
GSK3A (human) = GSK3A (human) (UniProt P49840)
[1] = target: JAK1 JH1 catalytic (human) (UniProt P23458)
CAMK1G (human) = CAMK1G (human) (UniProt Q96NX5)
CHEK1 (human) = CHEK1 (human) (UniProt O14757)
TGFBR2 (human) = TGFBR2 (human) (UniProt P37173)
NTRK2 (human) = NTRK2 (human) (UniProt Q16620)

MAP3K5 (human), sequence (Q99683 whole entry, looked up): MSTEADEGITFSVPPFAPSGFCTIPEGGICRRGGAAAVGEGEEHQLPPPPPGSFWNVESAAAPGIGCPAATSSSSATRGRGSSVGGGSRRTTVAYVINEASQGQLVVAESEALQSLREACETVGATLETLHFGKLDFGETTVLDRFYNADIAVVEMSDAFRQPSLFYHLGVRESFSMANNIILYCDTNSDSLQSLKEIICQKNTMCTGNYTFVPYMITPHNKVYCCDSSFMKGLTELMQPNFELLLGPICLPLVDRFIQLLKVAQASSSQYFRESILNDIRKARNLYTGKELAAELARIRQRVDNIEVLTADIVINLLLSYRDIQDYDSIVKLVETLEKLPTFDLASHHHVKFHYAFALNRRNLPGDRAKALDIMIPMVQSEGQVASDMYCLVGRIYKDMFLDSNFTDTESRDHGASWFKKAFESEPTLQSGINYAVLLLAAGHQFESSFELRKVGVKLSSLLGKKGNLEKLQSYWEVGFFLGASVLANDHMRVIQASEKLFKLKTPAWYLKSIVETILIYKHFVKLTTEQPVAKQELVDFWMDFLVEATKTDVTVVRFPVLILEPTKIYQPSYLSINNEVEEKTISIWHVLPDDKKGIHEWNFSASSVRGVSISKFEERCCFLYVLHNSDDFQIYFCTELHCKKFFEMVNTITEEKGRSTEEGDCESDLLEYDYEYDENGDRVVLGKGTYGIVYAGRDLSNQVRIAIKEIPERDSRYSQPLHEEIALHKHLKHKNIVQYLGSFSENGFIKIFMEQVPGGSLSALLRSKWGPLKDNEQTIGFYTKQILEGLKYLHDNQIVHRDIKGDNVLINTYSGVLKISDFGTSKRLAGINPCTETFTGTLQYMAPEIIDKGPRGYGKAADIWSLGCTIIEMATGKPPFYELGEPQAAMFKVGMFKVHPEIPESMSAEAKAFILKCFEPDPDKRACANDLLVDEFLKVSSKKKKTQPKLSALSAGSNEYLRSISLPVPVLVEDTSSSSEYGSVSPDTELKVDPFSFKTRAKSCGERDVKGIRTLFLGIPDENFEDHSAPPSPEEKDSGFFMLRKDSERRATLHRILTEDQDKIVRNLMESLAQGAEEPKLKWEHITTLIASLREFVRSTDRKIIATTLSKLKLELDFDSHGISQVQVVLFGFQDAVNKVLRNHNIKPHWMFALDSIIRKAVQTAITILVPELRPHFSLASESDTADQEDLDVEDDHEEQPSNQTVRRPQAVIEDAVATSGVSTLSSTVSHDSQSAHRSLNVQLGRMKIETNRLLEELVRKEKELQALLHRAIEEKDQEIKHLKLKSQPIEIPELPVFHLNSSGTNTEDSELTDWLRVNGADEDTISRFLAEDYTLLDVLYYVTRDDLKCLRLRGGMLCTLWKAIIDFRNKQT
MAP3K2 (human), sequence (Q9Y2U5 whole entry, looked up): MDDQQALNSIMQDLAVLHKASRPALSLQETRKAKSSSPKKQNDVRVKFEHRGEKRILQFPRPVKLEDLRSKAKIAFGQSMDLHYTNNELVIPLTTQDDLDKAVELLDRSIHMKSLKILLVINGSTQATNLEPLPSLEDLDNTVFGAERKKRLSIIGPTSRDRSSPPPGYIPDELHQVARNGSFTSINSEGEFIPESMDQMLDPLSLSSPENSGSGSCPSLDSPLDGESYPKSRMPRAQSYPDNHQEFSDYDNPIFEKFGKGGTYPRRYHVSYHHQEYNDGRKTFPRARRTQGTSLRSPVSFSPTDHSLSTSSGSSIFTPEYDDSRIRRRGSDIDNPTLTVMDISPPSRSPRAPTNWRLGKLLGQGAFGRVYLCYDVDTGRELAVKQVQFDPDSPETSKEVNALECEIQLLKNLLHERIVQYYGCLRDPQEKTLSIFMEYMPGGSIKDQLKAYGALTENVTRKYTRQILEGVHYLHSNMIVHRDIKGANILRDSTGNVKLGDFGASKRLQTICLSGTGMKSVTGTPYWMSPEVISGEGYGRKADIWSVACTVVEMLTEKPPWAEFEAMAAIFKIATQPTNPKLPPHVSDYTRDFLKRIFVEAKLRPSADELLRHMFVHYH
PAK3 (human), sequence (O75914 whole entry, looked up): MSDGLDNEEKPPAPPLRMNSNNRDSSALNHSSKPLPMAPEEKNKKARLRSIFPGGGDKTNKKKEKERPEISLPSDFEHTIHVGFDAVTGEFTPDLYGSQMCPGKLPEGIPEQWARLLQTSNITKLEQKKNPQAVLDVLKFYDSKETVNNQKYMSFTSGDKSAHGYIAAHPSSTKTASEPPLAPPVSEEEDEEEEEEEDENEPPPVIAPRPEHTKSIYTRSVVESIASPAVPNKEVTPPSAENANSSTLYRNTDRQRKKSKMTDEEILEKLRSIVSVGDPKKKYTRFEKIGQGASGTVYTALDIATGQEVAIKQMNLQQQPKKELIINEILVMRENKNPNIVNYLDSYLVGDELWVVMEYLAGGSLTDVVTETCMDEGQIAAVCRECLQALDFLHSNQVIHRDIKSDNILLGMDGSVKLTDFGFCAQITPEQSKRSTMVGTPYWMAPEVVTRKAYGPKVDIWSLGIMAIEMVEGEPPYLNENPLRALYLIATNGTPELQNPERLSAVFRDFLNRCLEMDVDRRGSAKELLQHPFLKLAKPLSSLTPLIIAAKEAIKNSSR
STK16 (human), sequence (O75716 whole entry, looked up): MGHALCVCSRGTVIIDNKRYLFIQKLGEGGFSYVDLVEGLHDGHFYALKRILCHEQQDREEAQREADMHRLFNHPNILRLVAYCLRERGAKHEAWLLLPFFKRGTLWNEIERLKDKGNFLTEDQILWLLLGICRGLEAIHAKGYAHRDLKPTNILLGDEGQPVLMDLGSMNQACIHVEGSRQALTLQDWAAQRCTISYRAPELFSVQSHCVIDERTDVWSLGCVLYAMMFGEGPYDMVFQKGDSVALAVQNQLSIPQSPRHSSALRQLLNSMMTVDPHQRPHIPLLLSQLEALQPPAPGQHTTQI
TAOK1 (human), sequence (Q7L7X3 whole entry, looked up): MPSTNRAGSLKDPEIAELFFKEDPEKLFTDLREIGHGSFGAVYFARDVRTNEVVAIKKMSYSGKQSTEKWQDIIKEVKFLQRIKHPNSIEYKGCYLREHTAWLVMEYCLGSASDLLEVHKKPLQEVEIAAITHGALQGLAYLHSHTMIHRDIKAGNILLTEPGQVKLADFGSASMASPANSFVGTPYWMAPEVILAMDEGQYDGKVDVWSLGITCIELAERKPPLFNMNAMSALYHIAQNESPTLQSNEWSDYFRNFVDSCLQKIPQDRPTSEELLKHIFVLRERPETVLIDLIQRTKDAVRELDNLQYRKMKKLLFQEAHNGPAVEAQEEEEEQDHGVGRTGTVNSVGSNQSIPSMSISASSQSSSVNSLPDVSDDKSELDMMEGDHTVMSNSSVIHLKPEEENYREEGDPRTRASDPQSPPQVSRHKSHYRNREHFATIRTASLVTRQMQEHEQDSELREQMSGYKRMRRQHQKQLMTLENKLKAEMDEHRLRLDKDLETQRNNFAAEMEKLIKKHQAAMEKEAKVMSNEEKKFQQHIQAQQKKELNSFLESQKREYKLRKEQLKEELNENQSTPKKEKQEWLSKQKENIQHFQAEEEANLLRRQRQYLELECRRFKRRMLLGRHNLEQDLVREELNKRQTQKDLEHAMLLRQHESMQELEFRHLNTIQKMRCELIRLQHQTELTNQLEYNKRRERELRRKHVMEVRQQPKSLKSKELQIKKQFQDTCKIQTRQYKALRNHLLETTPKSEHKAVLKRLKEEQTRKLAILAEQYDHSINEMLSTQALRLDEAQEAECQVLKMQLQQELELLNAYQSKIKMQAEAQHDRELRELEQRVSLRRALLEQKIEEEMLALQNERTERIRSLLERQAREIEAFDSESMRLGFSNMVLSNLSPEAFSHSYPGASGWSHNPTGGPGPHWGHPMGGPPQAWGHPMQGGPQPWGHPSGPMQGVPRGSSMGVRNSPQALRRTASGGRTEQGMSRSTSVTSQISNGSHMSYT
CLK3 (human), sequence (P49761 whole entry, looked up): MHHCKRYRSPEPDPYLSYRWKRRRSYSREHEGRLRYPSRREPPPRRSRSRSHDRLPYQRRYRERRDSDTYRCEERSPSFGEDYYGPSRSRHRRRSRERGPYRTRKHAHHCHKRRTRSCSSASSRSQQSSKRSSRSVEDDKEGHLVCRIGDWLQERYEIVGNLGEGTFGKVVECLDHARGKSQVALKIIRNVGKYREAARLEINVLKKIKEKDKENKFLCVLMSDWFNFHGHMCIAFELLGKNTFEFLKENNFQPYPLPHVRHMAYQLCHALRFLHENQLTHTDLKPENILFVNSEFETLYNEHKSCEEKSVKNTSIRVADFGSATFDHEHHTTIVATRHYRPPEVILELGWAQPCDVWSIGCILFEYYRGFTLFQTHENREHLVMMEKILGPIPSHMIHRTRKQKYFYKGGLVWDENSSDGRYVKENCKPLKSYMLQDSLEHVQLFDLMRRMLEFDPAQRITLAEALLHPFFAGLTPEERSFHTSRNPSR
VRK1 (human), sequence (Q99986 whole entry, looked up): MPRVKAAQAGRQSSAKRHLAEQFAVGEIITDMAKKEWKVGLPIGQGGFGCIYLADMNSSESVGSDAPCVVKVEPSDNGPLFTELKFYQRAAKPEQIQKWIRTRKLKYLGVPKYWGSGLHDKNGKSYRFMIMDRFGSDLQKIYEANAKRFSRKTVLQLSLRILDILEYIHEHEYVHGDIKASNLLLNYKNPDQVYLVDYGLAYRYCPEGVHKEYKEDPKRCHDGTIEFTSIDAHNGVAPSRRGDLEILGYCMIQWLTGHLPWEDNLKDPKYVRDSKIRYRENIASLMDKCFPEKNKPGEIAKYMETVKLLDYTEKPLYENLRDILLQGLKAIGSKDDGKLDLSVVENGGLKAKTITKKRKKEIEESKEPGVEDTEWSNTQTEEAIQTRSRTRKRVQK

Cn1sc(=O)n(Cc2ccccc2)c1=O
residual activity (HIPK3 (human)): 94.9%
residual activity (TAOK1 (human)): 88.9%
residual activity (DAPK2 (human)): 94%
residual activity (SIK2 (human)): 98.6%
residual activity (PRKCZ (human)): 101%
residual activity (SLK (human)): 84.7%
residual activity (AURKB (human)): 102%
residual activity (MAP3K2 (human)): 94.7%
residual activity (RIPK2 (human)): 85.4%
residual activity (STK16 (human)): 105%
residual activity (CLK3 (human)): 83%
residual activity (SRMS (human)): 96.2%
residual activity (MAP3K7 TAB1 (human)): 105%
residual activity (NEK11 (human)): 102%
residual activity (VRK1 (human)): 94.2%
residual activity (CSNK1G2 (human)): 95%
residual activity (SYK (human)): 92.2%
residual activity (NUAK1 (human)): 102%
residual activity (TBK1 (human)): 102%
residual activity (SGK2 (human)): 100%
residual activity (EPHB4 (human)): 100%
residual activity (CAMK2G (human)): 90.1%
residual activity (CHEK2 (human)): 108%
residual activity (MELK (human)): 99.3%
residual activity (FRK (human)): 112%
residual activity (IKBKB (human)): 112%
residual activity (AXL (human)): 96.9%
residual activity (MAPKAPK3 (human)): 105%
residual activity (PAK3 (human)): 100%
residual activity (MAP3K5 (human)): 91.5%
residual activity (PNCK (human)): 98.7%
residual activity (MAP4K2 (human)): 119%
residual activity (MAPK10 (human)): 91.1%
residual activity (TSSK1B (human)): 94.4%
residual activity (FLT3 (human)): 99.1%
residual activity (IGF1R (human)): 97.1%
residual activity (GSK3A (human)): 94.5%
residual activity [1]: 103%
residual activity (CAMK1G (human)): 117%
residual activity (CHEK1 (human)): 103%
residual activity (TGFBR2 (human)): 123%

O=C1Nc2ccccc2/C1=C1\Nc2ccccc2\C1=N/O
residual activity (HIPK3 (human)): 89.2%
residual activity (TAOK1 (human)): 102%
residual activity (NTRK2 (human)): 4.08%
residual activity (DAPK2 (human)): 110%
residual activity (SIK2 (human)): 89.8%
residual activity (PRKCZ (human)): 95.2%
residual activity (SLK (human)): 78.7%
residual activity (AURKB (human)): 49.6%
residual activity (MAP3K2 (human)): 94.6%
residual activity (RIPK2 (human)): 72.3%
residual activity (STK16 (human)): 54.8%
residual activity (CLK3 (human)): 48.2%
residual activity (SRMS (human)): 102%
residual activity (NEK11 (human)): 98.2%
residual activity (VRK1 (human)): 86.3%
residual activity (CSNK1G2 (human)): 89.4%
residual activity (SYK (human)): 58.5%
residual activity (NUAK1 (human)): 8.89%
residual activity (TBK1 (human)): 53.6%
residual activity (SGK2 (human)): 91.8%
residual activity (EPHB4 (human)): 85.9%
residual activity (CAMK2G (human)): 69.8%
residual activity (CHEK2 (human)): 32.3%
residual activity (MELK (human)): 33.3%
residual activity (FRK (human)): 73.3%
residual activity (IKBKB (human)): 96.1%
residual activity (AXL (human)): 82.3%
residual activity (MAPKAPK3 (human)): 103%
residual activity (PAK3 (human)): 92.6%
residual activity (MAP3K5 (human)): 84.3%
residual activity (PNCK (human)): 106%
residual activity (MAP4K2 (human)): 57.3%
residual activity (MAPK10 (human)): 96.4%
residual activity (TSSK1B (human)): 86%
residual activity (FLT3 (human)): 2.16%
residual activity (IGF1R (human)): 80.2%
residual activity (GSK3A (human)): 16.5%
residual activity [1]: 63.4%
residual activity (CAMK1G (human)): 101%
residual activity (CHEK1 (human)): 65.3%
residual activity (TGFBR2 (human)): 113%
